Laboratory results taken from patent publication US9393232B2 (BeiGene, Ltd., priority 2013, dated 2016).
Read-outs that look alike come from different tables or passages of the source.

What was measured:
[1] = molecular target: Recombinant human BRD4(1-477) (Homo sapiens (Human), UniProt O60885); experiment: BRD4 TR-FRET biochemical IC50 assay; format: binding; settings: tetra-acetylated histone peptide
[2] = molecular target: Recombinant human BRD2(1-473) (Homo sapiens (Human), UniProt P25440); experiment: BRD2 TR-FRET biochemical IC50 assay; format: binding
[3] = molecular target: Recombinant human BRDT(1-397) (Homo sapiens (Human), UniProt Q58F21); experiment: BRDT TR-FRET biochemical IC50 assay; format: binding
[4] = molecular target: Recombinant human BRD3(1-435) (Homo sapiens (Human), UniProt Q15059); experiment: BRD3 TR-FRET biochemical IC50 assay; format: binding
MV4-11 = MV4-11 (3 Days) EC50; format: cell-based
[5] = TR-FRET, tetra-acetylated histone peptide, read-out: BRD2 IC50
[6] = TR-FRET, tetra-acetylated histone peptide, read-out: BRDT IC50
[7] = TR-FRET, tetra-acetylated histone peptide, read-out: BRD3 IC50

Recombinant human BRD2(1-473), sequence (P25440 1-473): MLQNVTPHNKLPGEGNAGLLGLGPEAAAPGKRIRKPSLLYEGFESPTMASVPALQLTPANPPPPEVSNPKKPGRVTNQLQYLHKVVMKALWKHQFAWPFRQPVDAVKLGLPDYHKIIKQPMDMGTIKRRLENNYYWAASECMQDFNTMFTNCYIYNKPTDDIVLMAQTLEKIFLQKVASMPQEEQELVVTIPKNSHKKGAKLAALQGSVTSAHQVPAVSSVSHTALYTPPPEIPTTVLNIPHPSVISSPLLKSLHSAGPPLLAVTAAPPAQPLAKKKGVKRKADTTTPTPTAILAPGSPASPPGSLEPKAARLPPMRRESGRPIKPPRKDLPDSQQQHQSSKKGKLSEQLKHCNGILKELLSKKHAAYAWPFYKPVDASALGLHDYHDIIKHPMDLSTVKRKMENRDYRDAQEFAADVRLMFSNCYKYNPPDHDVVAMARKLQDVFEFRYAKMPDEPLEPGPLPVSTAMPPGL
Recombinant human BRD3(1-435), sequence (Q15059 1-435): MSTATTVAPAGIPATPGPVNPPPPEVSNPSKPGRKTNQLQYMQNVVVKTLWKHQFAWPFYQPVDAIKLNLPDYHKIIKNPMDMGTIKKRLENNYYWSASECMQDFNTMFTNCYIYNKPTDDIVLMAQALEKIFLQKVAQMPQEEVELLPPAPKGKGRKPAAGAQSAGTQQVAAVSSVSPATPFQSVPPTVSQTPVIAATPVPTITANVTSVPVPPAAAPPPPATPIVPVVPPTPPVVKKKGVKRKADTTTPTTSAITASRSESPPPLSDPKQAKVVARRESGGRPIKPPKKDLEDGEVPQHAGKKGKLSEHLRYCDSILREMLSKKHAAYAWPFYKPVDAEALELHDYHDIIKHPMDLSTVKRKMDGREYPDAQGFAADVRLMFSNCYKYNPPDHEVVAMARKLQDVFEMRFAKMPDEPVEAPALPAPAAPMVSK

Row | Structure (SMILES) | IC50 ([1]; TR-FRET, read-out: BRD4 IC50) | EC50 (MV4-11; Homo sapiens, MV4-11, 72 h) | further results
1 | Cc1noc(C)c1-c1ccc2c(c1)C(O)(C1CCCCC1=O)C(=O)N2 (single isomer, unassigned) [Compound 1.30a, 5-(3,5-Dimethylisoxazol-4-yl)-3-hydroxy-3-(2-oxocyclohexyl)indolin-2-one] | 70 nM | – | IC50 [2, 5]: 52 nM; IC50 [3, 6]: 58 nM; IC50 [4, 7]: 25 nM
2 | Cc1noc(C)c1-c1ccc2c(c1)C(N[C@H](C)CO)(c1ccccc1)C(=O)N2 (single isomer, unassigned) [Compound 2.10a] | – | – | IC50 [2, 5]: 24 nM; IC50 [3, 6]: 69 nM; IC50 [4, 7]: 23 nM
3 | Cc1noc(C)c1-c1ccc2c(c1)C(O)(c1ccsc1)C(=O)N2 (single isomer, unassigned) [Compound 4.1b, 5-(3,5-Dimethylisoxazol-4-yl)-3-hydroxy-3-(thiophen-3-yl)indolin-2-one] | – | – | IC50 ([1]; BRD4 IC50, TR-FRET): 34 nM; EC50 (MV4-11; Homo sapiens, 72 h): 73 nM; IC50 [2]: 18 nM; IC50 [3]: 31 nM; IC50 [4]: 14 nM
4 | Cc1noc(C)c1-c1ccc2c(c1)C(NCC(C)O)(C1CCCCC1)C(=O)N2 (stereo in doubt) [Compound 2.22, 3-cyclohexyl-5-(3,5-dimethylisoxazol-4-yl)-3-((R)-2-hydroxypropylamino)indolin-2-one] | 81 nM | – | EC50 (MV4-11): 116 nM; IC50 [2, 5]: 32 nM; IC50 [3, 6]: 42 nM; IC50 [4, 7]: 23 nM
5 | Cc1noc(C)c1-c1ccc2c(c1)C(O)(C1CCOCC1)C(=O)N2 (stereo not shown) [Compound 1.16, 5-(3,5-dimethylisoxazol-4-yl)-3-hydroxy-3-(tetrahydro-2H-pyran-4-yl)indolin-2-one] | 630 nM | – | IC50 [2, 5]: 380 nM; IC50 [3, 6]: 510 nM; IC50 [4, 7]: 140 nM
6 | Cc1noc(C)c1-c1ccc2c(c1)C(c1ccccc1)(N1CCC[C@H](O)C1)C(=O)N2 (stereo partly drawn) [Compound 2.16, 5-(3,5-dimethylisoxazol-4-yl)-3-((S)-3-hydroxypiperidin-1-yl)-3-phenylindolin-2-one] | – | – | IC50 [2, 5]: 9.6 nM; IC50 [3, 6]: 23 nM; IC50 [4, 7]: 9.9 nM
7 | Cc1noc(C)c1-c1ccc2c(c1)C(c1ccccc1)(N1CCNCC1)C(=O)N2 (stereo not shown) [Compound 2.38, 5-(3,5-dimethylisoxazol-4-yl)-3-phenyl-3-(piperazin-1-yl)indolin-2-one] | 120 nM | 504 nM | –
8 | Cc1noc(C)c1-c1ccc2c(c1)C(C1CCCCC1)(N1CCNCC1)C(=O)N2 (stereo not shown) [Compound 2.39] | 76 nM | 365 nM | –
9 | Cc1noc(C)c1-c1ccc2c(c1)C(C1CCCC1)(N1CCNCC1)C(=O)N2 (stereo not shown) [Compound 2.40, 3-Cyclopentyl-5-(3,5-dimethylisoxazol-4-yl)-3-(piperazin-1-yl)indolin-2-one] | 150 nM | 555 nM | –
10 | Cc1noc(C)c1-c1ccc2c(c1)C(c1ccccc1)(N1CCC[C@H](N)C1)C(=O)N2 (stereo partly drawn) [Compound 2.46, 3-((S)-3-aminopiperidin-1-yl)-5-(3,5-dimethylisoxazol-4-yl)-3-phenylindolin-2-one] | 11 nM | – | IC50 [2, 5]: 6.6 nM; IC50 [3, 6]: 14 nM; IC50 [4, 7]: 5.3 nM
11 | Cc1noc(C)c1-c1ccc2c(c1)C(c1ccccc1)(N1CC(O)C1)C(=O)N2 (stereo not shown) [Compound 2.58, 5-(3,5-Dimethylisoxazol-4-yl)-3-(3-hydroxyazetidin-1-yl)-3-phenylindolin-2-one] | 78 nM | 258 nM | –
12 | Cc1noc(C)c1-c1ccc2c(c1)C(c1ccccc1)C(=O)N2 (stereo not shown) [Compound 3.1, 5-(3,5-Dimethylisoxazol-4-yl)-3-phenylindolin-2-one] | 110 nM | 382 nM | –
13 | Cc1noc(C)c1-c1ccc2c(c1)C(CCCO)(c1ccccc1)C(=O)N2 (stereo not shown) [Compound 3.2, 5-(3,5-dimethylisoxazol-4-yl)-3-(3-hydroxypropyl)-3-phenylindolin-2-one] | 52 nM | 125 nM | –
14 | CCOC(=O)CC1(c2ccccc2)C(=O)Nc2ccc(-c3c(C)noc3C)cc21 (stereo not shown) [Compound 3.3, Ethyl 2-(5-(3,5-dimethylisoxazol-4-yl)-2-oxo-3-phenylindolin-3-yl)acetate] | 440 nM | 787 nM | –
15 | Cc1noc(C)c1-c1ccc2c(c1)C(CCO)(c1ccccc1)C(=O)N2 (stereo not shown) [Compound 3.5, 5-(3,5-Dimethylisoxazol-4-yl)-3-(2-hydroxyethyl)-3-phenylindolin-2-one] | 120 nM | 140 nM | –
16 | Cc1noc(C)c1-c1ccc2c(c1)C(CCCN1CCOCC1)(c1ccccc1)C(=O)N2 (stereo not shown) [Compound 3.6, 5-(3,5-dimethylisoxazol-4-yl)-3-(3-morpholinopropyl)-3-phenylindolin-2-one] | 100 nM | 270 nM | –
17 | Cc1noc(C)c1-c1ccc2c(c1)C(CCCN1CCN(C)CC1)(c1ccccc1)C(=O)N2 (stereo not shown) [Compound 3.7, 5-(3,5-Dimethylisoxazol-4-yl)-3-(3-(4-methylpiperazin-1-yl)propyl)-3-phenylindolin-2-one] | 53 nM | 116 nM | –
18 | Cc1noc(C)c1-c1ccc2c(c1)C(CCCN1CCNCC1)(c1ccccc1)C(=O)N2 (stereo not shown) [Compound 3.8, 5-(3,5-Dimethylisoxazol-4-yl)-3-phenyl-3-(3-(piperazin-1-yl)propyl)indolin-2-one] | 51 nM | 62 nM | –
19 | Cc1noc(C)c1-c1ccc2c(c1)C(CCCN1CCC(O)CC1)(c1ccccc1)C(=O)N2 (stereo not shown) [Compound 3.9, 5-(3,5-Dimethylisoxazol-4-yl)-3-(3-(4-hydroxypiperidin-1-yl)propyl)-3-phenylindolin-2-one] | 120 nM | 377 nM | –
20 | Cc1noc(C)c1-c1ccc2c(c1)C(CCCN(C)C)(c1ccccc1)C(=O)N2 (stereo not shown) [Compound 3.10, 3-(3-(Dimethylamino)propyl)-5-(3,5-dimethylisoxazol-4-yl)-3-phenylindolin-2-one] | 140 nM | 490 nM | –
21 | Cc1noc(C)c1-c1ccc2c(c1)C(O)(c1ccsc1)C(=O)N2 (stereo not shown) [Compound 4.1, 5-(3,5-Dimethylisoxazol-4-yl)-3-hydroxy-3-(thiophen-3-yl)indolin-2-one] | 100 nM | – | EC50 (MV4-11; Homo sapiens, 72 h): 140 nM
22 | Cc1noc(C)c1-c1ccc2c(c1)C(NC(=O)CN(C)C)(c1ccccc1)C(=O)N2 (stereo not shown) [Compound 6.0, 2-(Dimethylamino)-N-(5-(3,5-dimethylisoxazol-4-yl)-2-oxo-3-phenylindolin-3-yl)acetamide] | 320 nM | 746 nM | –
